Measured values as given in publication doi:10.1101/2024.06.17.599194v1 (biorxiv, 2024).

B1: A. baumannii IspE (AbIspE) (Acinetobacter baumannii ACICU) (protein)
chain: MIRVPSPAKLNLFLHITGRRENGYHELQTIFQLIDLYDWMTFTPISEDEIQIEGLGEVQLEQNLIYRAAQILRPHAQNPCGLHIKIEKNIPMGAGLGGGSSNAATTLIVLNQLWQCGLTEEQLAQFGVKLGADVPIFIYGLNAWAEGIGEHLSFIDLDQKQFIVLKPDCFISTQLLFSQKTLTRDSKPTTFCAYQLEPSNFGNNFEPLARELYPEVEEAMQYLDQFGHAKLTGTGACVFAEVTDEMNVDDILKHAPCKAYLVHSLKESPLRHFKVAS
B2: K. pneumoniae IspE (KpIspE) (Klebsiella pneumoniae subsp. pneumoniae MGH 78578) (protein)
chain: MMTRWPSPAKLNLFLYITGQRADGYHTLQTLFQFLDYGDTLTIEPRTDGQLRLLTPVAGVPDEENLIVRAARLLMHAASESDRLPAGSGADISIDKRLPMGGGLGGGSSNAATVLVALNHLWGCGLSEDELATLGLQLGADVPVFVRGHAAFAEGVGEILTPVEPEEKWYLVAHPGVSIPTPIIFRDPELPRNTPRRSINTLLNCEFSNDCELIARKRFREVDAALSWLLEYAPSRLTGTGACVFAEFNTESAARQVLDTAPAWLNGFVARGVNLSPLKQALL
B3: E. coli IspE (EcIspE) (Escherichia coli K-12) (protein)
chain: MRTQWPSPAKLNLFLYITGQRADGYHTLQTLFQFLDYGDTISIELRDDGDIRLLTPVEGVEHEDNLIVRAARLLMKTAADSGRLPTGSGANISIDKRLPMGGGLGGGSSNAATVLVALNHLWQCGLSMDELAEMGLTLGADVPVFVRGHAAFAEGVGEILTPVDPPEKWYLVAHPGVSIPTPVIFKDPELPRNTPKRSIETLLKCEFSNDCEVIARKRFREVDAVLSWLLEYAPSRLTGTGACVFAEFDTESEARQVLEQAPEWLNGFVAKGANLSPLHRAML

Key:
[1] = biological target: T1, K. pneumoniae IspE (KpIspE) (Klebsiella pneumoniae, UniProt A6TAP2); assay: coupled spectrophotometric assay, dose-response; assay type: biochemical
T1 sequence (A6TAP2 1-283): B2 chain

[2] = biological target: T2, E. coli IspE (EcIspE) (Escherichia coli, UniProt P62615); assay: coupled spectrophotometric assay, dose-response; assay type: biochemical
T2 sequence (P62615 1-283): B3 chain

[3] = biological target: T3, A. baumannii IspE (AbIspE) (Acinetobacter baumannii, UniProt B2HUM5); assay: coupled spectrophotometric assay, dose-response; assay type: biochemical
T3 sequence (B2HUM5 1-277): B1 chain

[4] = substrate: C[C@](O)(CO)[C@H](O)COP(=O)(O)OP(=O)(O)OC[C@H]1O[C@@H](n2ccc(N)nc2=O)[C@H](O)[C@@H]1O; assay: purified protein; conditions: room temperature; ATP 1 mM
[5] = substrate: Nc1ncnc2c1ncn2[C@@H]1O[C@H](COP(=O)(O)OP(=O)(O)OP(=O)(O)O)[C@@H](O)[C@H]1O; assay: purified protein; conditions: room temperature; CDP-ME 2 mM

Molecule	IC50 [1]	IC50 [2]	IC50 [3]	Km [4]	Km [5]
Nc1nc(=O)[nH]cc1C#CCNS(=O)(=O)C1CC1 [compound 2, 2]	44.3 ± 4.9 µM	36.5 ± 1.6 µM	–	–	–
Nc1nc(=O)n(C2CCCS2)cc1C#CCNS(=O)(=O)C1CC1 (racemic) [compound 1, (±)-1]	8 ± 1.5 µM	13 ± 2.9 µM	20 ± 3 µM	–	–
Nc1nc(=O)[nH]cc1C#CCNS(=O)(=O)C1CCCCC1 [compound 4, 4]	5.2 ± 1.3 µM	6.2 ± 3.19 µM	–	–	–
Nc1nc(=O)[nH]cc1C#CCNS(=O)(=O)C1CCCC1 [compound 3, 3]	11.3 ± 0.6 µM	10.3 ± 0.7 µM	–	–	–
B1	–	–	–	358 µM	474 µM
B2	–	–	–	170 µM	348 µM
B3	–	–	–	200 µM	420 µM
